Test results published in ChEMBL document CHEMBL1131369, “Isoxazolylthioamides as potential immunosuppressants a combinatorial chemistry approach” (Bioorg Med Chem Lett, 1998).

Target: Dihydroorotate dehydrogenase (quinone), mitochondrial (Homo sapiens, UniProt Q02127)
Experiment: Immunosuppressive activity expressed as ability to inhibit human recombinant dihydroorotate dehydrogenase (DHODH)

Dihydroorotate dehydrogenase (quinone), mitochondrial, sequence (Q02127 whole entry): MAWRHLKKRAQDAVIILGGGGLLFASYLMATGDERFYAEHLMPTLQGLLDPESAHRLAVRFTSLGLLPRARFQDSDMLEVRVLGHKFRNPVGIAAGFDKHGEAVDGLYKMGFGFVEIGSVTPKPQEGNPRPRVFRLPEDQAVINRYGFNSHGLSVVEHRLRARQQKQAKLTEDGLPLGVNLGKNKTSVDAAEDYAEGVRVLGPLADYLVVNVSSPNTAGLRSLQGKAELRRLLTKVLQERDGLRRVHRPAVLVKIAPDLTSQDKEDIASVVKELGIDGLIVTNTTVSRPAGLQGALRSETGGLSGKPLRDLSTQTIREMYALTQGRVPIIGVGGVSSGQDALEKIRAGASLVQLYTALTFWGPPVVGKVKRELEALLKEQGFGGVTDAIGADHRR

SMILES | IC50
CN(C)c1ccc(NC(=S)c2cnoc2C2CC2)cc1 | > 50 µM
CCCCCCc1oncc1/C(S)=N/c1ccc(C(F)(F)F)cc1 | > 50 µM
CCCCCCc1oncc1C(=S)Nc1ccc(C#N)cc1 | > 50 µM
N#Cc1ccc(NC(=S)c2cnoc2C2CC2)cc1 | 9.3 µM
CC(=O)/C(C#N)=C(/S)Nc1ccc(C(F)(F)F)cc1 | 0.8 µM
CN(C)c1ccc(NC(=S)c2cnoc2C2CCCCC2)cc1 | > 50 µM
Cc1oncc1/C(S)=N/c1ccc(OC(F)(F)F)cc1 | 7.2 µM
CCc1oncc1/C(S)=N/c1ccc(OC(F)(F)F)cc1 | 0.7 µM
CCCCCCc1oncc1/C(S)=N/c1ccc(OC(F)(F)F)cc1 | > 50 µM
CC(C)(C)c1oncc1/C(S)=N/c1ccc(C(F)(F)F)cc1 | > 50 µM
CCc1oncc1/C(S)=N/c1ccc(C(F)(F)F)cc1 | 3 µM
Cc1oncc1C(=S)Nc1ccc(N(C)C)cc1 | > 50 µM
FC(F)(F)Oc1ccc(NC(=S)c2cnoc2C2CC2)cc1 | 0.8 µM
N#Cc1ccc(NC(=S)c2cnoc2C2CCCCC2)cc1 | > 50 µM
Cc1oncc1C(=S)Nc1ccc(C#N)cc1 | 35 µM
FC(F)(F)c1ccc(NC(=S)c2cnoc2C2CCCCC2)cc1 | > 50 µM
CC(C)(C)c1oncc1C(=S)Nc1ccc(OC(F)(F)F)cc1 | > 50 µM
FC(F)(F)c1ccc(NC(=S)c2cnoc2C2CC2)cc1 | 3.2 µM
CCc1oncc1/C(S)=N/c1ccc(N(C)C)cc1 | 40.4 µM
CCCCCCc1oncc1C(=S)Nc1ccc(N(C)C)cc1 | > 50 µM
CCc1oncc1C(=S)Nc1ccc(C#N)cc1 | 11 µM
CN(C)c1ccc(NC(=S)c2cnoc2C(C)(C)C)cc1 | > 50 µM
CC(C)(C)c1oncc1/C(S)=N/c1ccc(C#N)cc1 | > 50 µM
FC(F)(F)Oc1ccc(NC(=S)c2cnoc2C2CCCCC2)cc1 | > 50 µM
Cc1oncc1C(=S)Nc1ccc(C(F)(F)F)cc1 | > 50 µM

Species: Mus musculus
Experiment: Compound was tested in vitro for immunosuppressive activity which was measured in the mouse mixed lymphocyte reaction
Type: functional

SMILES | IC50
CC(=O)/C(C#N)=C(/S)Nc1ccc(C(F)(F)F)cc1 | 11 µM
C/C(O)=C(/C#N)C(=O)Nc1ccc(C(F)(F)F)cc1 | 10 µM
Cc1oncc1C(=S)Nc1ccc(C(F)(F)F)cc1 | 23 µM
